# Values of other authors as cited in patent US11304902B2, “Pharmaceutical compositions, preparation and uses thereof” (CURADIGM SAS, priority 2014, dated 2022).
# Entries after “also recorded” stand apart in the source; their conditions may differ.
# Assays:
# Settings in all cases: human CYP enzyme
# CYP3A4 = CYP3A4 (Homo sapiens, UniProt P08684)
# CYP4F12 = biological target: T1, CYP4F12 (Homo sapiens, UniProt Q9HCS2)
# T1 sequence (Q9HCS2 1-524): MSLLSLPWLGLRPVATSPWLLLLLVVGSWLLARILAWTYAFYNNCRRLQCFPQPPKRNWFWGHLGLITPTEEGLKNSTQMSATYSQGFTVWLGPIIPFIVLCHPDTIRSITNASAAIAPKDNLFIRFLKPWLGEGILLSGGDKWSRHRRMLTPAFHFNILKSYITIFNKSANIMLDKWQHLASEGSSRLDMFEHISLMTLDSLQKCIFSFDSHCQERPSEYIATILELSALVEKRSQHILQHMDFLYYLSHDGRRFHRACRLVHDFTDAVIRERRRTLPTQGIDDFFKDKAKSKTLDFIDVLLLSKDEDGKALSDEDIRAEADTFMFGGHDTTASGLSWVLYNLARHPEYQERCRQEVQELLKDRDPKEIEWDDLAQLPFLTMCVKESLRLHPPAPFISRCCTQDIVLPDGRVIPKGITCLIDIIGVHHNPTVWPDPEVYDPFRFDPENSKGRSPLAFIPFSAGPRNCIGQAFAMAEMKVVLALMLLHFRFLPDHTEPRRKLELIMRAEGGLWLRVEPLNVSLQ
# CYP2D6 = CYP2D6 (Homo sapiens, UniProt P10635)
# CYP2D6, sequence (P10635 whole entry): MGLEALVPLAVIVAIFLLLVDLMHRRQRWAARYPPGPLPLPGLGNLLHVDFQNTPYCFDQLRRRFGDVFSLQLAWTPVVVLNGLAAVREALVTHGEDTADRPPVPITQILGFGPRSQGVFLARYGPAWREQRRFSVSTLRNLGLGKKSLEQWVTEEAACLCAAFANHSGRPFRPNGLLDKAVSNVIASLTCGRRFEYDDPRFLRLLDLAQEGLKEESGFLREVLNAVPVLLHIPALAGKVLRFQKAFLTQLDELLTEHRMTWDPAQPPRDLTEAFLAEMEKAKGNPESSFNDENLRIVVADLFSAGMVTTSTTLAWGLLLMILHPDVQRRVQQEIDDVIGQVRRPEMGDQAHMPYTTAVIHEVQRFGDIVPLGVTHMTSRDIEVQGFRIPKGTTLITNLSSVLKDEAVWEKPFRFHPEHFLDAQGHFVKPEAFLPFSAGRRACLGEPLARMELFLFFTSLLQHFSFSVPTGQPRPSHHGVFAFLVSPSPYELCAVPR
# CYP2C8 = biological target: T2, CYP2C8 (Homo sapiens, UniProt P10632)
# T2 sequence (P10632 1-490): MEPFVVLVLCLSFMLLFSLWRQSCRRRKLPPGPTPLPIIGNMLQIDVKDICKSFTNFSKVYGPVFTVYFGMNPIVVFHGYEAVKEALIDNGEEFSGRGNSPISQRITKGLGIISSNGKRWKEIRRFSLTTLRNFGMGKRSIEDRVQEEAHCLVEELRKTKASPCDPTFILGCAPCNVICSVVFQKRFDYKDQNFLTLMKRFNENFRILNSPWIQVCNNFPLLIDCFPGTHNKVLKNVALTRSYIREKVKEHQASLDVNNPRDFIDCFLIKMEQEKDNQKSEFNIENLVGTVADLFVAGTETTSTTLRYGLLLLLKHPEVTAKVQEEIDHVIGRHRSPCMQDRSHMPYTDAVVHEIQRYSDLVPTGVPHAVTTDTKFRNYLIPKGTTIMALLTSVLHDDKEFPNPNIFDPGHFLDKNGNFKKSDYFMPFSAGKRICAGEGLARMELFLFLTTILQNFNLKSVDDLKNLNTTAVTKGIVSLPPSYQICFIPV
# CYP4F2 = biological target: T3, CYP4F2 (Homo sapiens, UniProt P78329)
# T3 sequence (P78329 5-520): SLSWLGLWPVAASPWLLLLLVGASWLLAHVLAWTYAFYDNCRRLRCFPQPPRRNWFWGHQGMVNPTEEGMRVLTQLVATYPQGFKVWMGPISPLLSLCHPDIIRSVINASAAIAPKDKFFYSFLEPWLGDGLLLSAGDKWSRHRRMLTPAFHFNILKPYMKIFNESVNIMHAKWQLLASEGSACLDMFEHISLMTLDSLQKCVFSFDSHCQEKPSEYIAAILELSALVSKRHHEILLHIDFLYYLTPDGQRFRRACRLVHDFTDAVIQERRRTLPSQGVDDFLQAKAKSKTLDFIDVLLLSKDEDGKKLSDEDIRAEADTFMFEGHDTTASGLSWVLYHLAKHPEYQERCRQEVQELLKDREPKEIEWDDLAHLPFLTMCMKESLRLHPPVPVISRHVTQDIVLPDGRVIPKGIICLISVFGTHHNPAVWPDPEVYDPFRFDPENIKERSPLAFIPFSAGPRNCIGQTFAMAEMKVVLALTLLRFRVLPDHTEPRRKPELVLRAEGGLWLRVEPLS
# CYP4A11 = biological target: T4, CYP4A11 (Homo sapiens, UniProt Q02928)
# T4 sequence (Q02928 5-519): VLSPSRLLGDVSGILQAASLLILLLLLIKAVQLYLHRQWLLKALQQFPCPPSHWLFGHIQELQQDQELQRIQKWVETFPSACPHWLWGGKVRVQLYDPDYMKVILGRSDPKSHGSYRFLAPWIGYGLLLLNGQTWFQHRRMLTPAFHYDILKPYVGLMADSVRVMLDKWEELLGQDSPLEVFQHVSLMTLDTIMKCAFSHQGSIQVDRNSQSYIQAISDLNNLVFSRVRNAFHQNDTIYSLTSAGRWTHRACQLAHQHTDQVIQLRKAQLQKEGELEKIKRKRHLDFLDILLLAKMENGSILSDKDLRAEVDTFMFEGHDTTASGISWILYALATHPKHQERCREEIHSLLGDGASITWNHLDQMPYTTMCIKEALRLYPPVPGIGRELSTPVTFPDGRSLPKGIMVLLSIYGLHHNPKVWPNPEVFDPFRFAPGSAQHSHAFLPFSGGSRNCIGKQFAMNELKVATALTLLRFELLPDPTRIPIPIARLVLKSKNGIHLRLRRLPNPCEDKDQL
# CYP1A2 = biological target: T5, CYP1A2 (Homo sapiens, UniProt P05177)
# T5 sequence (P05177 1-516): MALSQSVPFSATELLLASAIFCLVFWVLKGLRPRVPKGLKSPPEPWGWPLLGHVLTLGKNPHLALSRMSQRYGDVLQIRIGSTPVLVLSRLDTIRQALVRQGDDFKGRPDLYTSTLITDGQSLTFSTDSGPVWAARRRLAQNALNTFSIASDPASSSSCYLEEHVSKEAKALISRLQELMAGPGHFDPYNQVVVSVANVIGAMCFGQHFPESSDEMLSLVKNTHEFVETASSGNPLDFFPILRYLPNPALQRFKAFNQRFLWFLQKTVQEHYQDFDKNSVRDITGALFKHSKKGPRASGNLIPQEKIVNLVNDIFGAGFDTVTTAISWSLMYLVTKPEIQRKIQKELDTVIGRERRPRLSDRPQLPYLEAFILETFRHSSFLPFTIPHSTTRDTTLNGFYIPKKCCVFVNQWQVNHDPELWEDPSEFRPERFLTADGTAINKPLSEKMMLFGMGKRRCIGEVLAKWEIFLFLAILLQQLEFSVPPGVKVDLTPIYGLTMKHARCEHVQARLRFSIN
# CYP2E1 = CYP2E1 (Homo sapiens, UniProt P05181)
# CYP2E1, sequence (P05181 whole entry): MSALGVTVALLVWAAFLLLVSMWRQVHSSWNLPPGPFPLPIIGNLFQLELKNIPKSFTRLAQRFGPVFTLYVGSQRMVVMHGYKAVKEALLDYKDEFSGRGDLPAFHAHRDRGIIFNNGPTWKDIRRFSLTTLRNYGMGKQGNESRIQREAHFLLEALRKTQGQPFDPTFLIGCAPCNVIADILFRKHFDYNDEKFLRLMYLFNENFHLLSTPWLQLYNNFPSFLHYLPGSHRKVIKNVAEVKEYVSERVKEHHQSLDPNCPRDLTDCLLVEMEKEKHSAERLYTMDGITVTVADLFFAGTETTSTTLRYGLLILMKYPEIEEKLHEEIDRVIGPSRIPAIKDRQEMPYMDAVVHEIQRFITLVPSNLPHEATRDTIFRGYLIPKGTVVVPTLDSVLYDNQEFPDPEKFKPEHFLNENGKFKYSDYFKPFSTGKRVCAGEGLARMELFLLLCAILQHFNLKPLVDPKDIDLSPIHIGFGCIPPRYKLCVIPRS
# CYP3A4, sequence (P08684 whole entry): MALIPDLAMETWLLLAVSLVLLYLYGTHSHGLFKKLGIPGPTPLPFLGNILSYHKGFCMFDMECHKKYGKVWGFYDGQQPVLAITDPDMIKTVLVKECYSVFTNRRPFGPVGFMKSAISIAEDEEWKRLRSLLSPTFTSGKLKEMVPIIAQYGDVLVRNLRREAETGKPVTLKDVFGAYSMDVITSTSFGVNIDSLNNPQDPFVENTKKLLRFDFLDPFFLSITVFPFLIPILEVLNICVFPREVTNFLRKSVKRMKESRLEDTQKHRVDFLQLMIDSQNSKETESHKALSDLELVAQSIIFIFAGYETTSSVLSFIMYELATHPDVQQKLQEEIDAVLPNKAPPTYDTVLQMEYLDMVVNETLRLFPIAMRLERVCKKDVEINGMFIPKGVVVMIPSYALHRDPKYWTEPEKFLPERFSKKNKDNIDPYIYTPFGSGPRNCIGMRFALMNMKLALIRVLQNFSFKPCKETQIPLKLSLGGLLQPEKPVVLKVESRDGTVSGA
compound,measurement,setting,value
"CCCCC/C=C\C/C=C\C/C=C\C/C=C\CCCC(=O)O [Arachidonic acid, arachidonic acid]",role towards CYP3A4 (substrate / inhibitor / inducer),CYP3A4,Inhibitor; also recorded: Substrate
same,role towards CYP4F12 (substrate / inhibitor / inducer),CYP4F12,Substrate
same,role towards CYP2D6 (substrate / inhibitor / inducer),CYP2D6,Inhibitor
same,role towards CYP2C8 (substrate / inhibitor / inducer),CYP2C8,Substrate
same,role towards CYP4F2 (substrate / inhibitor / inducer),CYP4F2,Substrate
same,role towards CYP4A11 (substrate / inhibitor / inducer),CYP4A11,Substrate
same,role towards CYP1A2 (substrate / inhibitor / inducer),CYP1A2,Substrate; also recorded: Inhibitor
same,role towards CYP2E1 (substrate / inhibitor / inducer),CYP2E1,Inhibitor
